The values that follow come from US5225531A, “Hexapeptide Lys Gly Ala Gly Asp Val” (Washington University, priority 1992, dated 1993).

The test system of this test is human platelet rich plasma. It counts as cell-based. The method, then:
Platelet aggregation assay--Aggregation studies using human platelet rich plasma were performed as previously described (20). Briefly, blood from human volunteers who had not taken any antiplatelet drugs in the previous two weeks was collected into 1/10th volume of CCD buffer (100 mM sodium citrate, 136 mM glucose, pH 6.5). The blood was centrifuged for 3 min at 1000×g and the platelet rich plasma (PRP) was transferred to a plastic tube with a plastic pipet. The PRP was adjusted to 2×10^8 platelets/ml with platelet poor plasma (prepared by centrifuging anti-coagulated blood at 2000×g for 15 min) and placed on ice. PRP and control (saline) or test peptides (500 μl) were incubated with 5 μM ADP at 37° C. in a silanized glass cuvette with stirring (900 RPM). The extent of aggregation was monitored with a Payton aggregometer 2 min after the addition of ADP. Inhibition of aggregation for each sample was determined using the following formula: % Inhibition=[…], where Tbase =% of light transmission in PRP, Tagg =% of light transmission in the aggregated PRP sample containing the saline control for peptides, and Tpep =% of light transmission in the aggregated PRP sample containing the peptide inhibitor.

No end group written: not given here.

Consider HHLGGAKGAGDV, for which the “Platelet ID50 (inhibition of platelet aggregation)” value was greater than 100 µM.
